Laboratory results reported in patent publication US11299480B2, “2-arylsulfonamido-N-arylacetamide derivatized STAT3 inhibitors” (University of Hawaii, priority 2017, dated 2022).
“Also recorded” adds a separate entry of the source.

Legend:
[1] = tested on: MEF/Stat3−/−; test: Cell viability, Stat3 null mouse embryonic fibroblasts; type: cell-based; settings: 48-72 h
Experimental: (§1) FIG. 5. Effects of select compounds of the present invention on cell viability, growth, colony survival and migration in vitro. […] Cell numbers were counted by trypan blue exclusion/phase-contrast microscopy every […], and cell growth curve was plotted.
(§2) Cells in 6-well or 96-well plates were treated with or without compounds for the indicated concentrations and time, and subjected to MTT assay or CyQuant cell proliferation assay (Invitrogen/ThermoFisher Scientific), or harvested and the viable cells were counted by trypan blue exclusion with phase-contrast microscopy.
(§3) Constitutive Stat3 activity promotes tumor cell growth and proliferation and survival (Darnell J E (2005) Nat Med. 11:595-6; Bowman T, et al., (2000) Oncogene 19:2474-2488). Some of the compounds of the present invention were tested against tumor cells harboring constitutively-active Stat3.

[2] = tested on: C81-61; test: Cell viability, C81-61 melanoma cells; type: cell-based, human; settings: C81-61, 48 h, 10 and 20 micromolar
Experimental: as §1, §2, §3

[3] = molecular target: Stat3 (Homo sapiens (Human), UniProt P40763); test: Stat3 DNA-binding activity in nuclear extracts of treated MDA-MB-231 cells, EMSA; type: cell-based; settings: 10 μM
Experimental: (§4) FIG. 3. Effects of select compounds of the present invention on Stat3 DNA-binding activity and Stat3 tyrosine phosphorylation in cells. (FIG. 3A) EMSA analysis of Stat3 DNA-binding activity in nuclear extracts of equal total protein prepared from cells treated with DMSO (0 as control, Con), 5 or 10 μM of compounds for 1-34 h. Positions of Stat3:DNA complexes in gel are labeled. […] Positions of Stat3:DNA complexes or proteins in gel are shown; control (0 or Con) lane represents whole-cell lysates or nuclear extracts prepared from 0.05% DMSO-treated cells. […] Data are representative of 2-3 independent determinations.
The ^32P-labeled oligonucleotide probes used were hSIE (high affinity sis-inducible element from the c-fos gene, m67 variant, 5′-[…]) (SEQ ID NO: 1) that binds Stat1 and Stat3 and MGFe (mammary gland factor element from the bovine β-casein gene promoter, 5′-[…]) (SEQ ID NO: 2) for Stat1 and Stat5 binding. Except where indicated, nuclear extracts were pre-incubated with compound for 30 min at room temperature prior to incubation with the radiolabeled probe for 30 min at 30° C. before subjecting to EMSA analysis. Where appropriate, bands corresponding to Stat3:DNA complexes were scanned and quantified for each concentration of compound using ImageJ and plotted as percent of control (DMSO) against concentration of compound, from which the IC50 values were derived.
Select compounds of the invention were investigated for their inhibitory effects of the active analogs on intracellular Stat3 signaling. […] Nuclear extracts were prepared and subjected to EMSA analysis for Stat3 DNA-binding activity. […] Stat3 DNA-binding activity in MDA-MB-231 cells was inhibited by both Examples 1 and 5 following treatment at 3 h, with little change at 1 h (FIG. 3A).

[4] = tested on: pY705Stat3; test: Constitutive Stat3 Tyr705 phosphorylation, immunoblot, C8161 metastatic melanoma cells; type: cell-based, human; settings: C8161, 10 or 20 μM for 1 and 3 h
Experimental: as §4
(§5) All antibodies tested were purchased from Cell Signaling Technology.
(§6) Altogether, the new analogs show strong, albeit variable degrees of inhibition of constitutive Stat3 DNA-binding activity and Tyr phosphorylation in human tumor cells.

[5] = tested on: Stat1; test: Stat1 DNA-binding activity in vitro, EMSA (MGFe probe); type: biochemical; settings: for effect on Stat1 DNA-binding activity: 10 μM or 0-30 μM compound
From the text: FIG. 2. Effects of select compounds of the present invention on Stat1 and Stat5 DNA-binding activity. […] Positions of Stat:DNA complexes in gel are labeled; control lanes (0 or Con) represent nuclear extracts pre-treated with 10% DMSO. Data are representative of 1-3 independent determinations. […] Where appropriate, bands corresponding to Stat3:DNA complexes were scanned and quantified for each concentration of compound using ImageJ and plotted as percent of control (DMSO) against concentration of compound, from which the IC50 values were derived. In order to determine the specificity of select new analogs active against Stat3 activity, the inventors investigated the effects on the inhibition of other STAT family members, including Stat1 and Stat5 DNA-binding activity in vitro.

[6] = tested on: MDA-MB-231; test: CyQuant cell viability assay, MDA-MB-231; type: cell-based, human; settings: MDA-MB-231, CyQuant, 0-10 μM, 72 h
Experimental: (§7) FIG. 6. Effects of select compounds of the present invention on cell viability. […] Cells were first grown in 6-well plates then were treated once with 0-10 μM of the indicated compounds for 72 h. Viable cells were assayed using CyQuant cell proliferation kit and plotted as % cell viability against concentration. Control (0) represents 0.05% DMSO-treated cells. Values, mean ± S.D. of 2-3 independent determinations.
as §2, §3

[7] = tested on: pY705Stat3; test: Constitutive Stat3 tyrosine phosphorylation, immunoblot, MDA-MB-468 cells; type: cell-based, human
Experimental: as §4, §5, §6

[8] = tested on: MDA-MB-468; test: CyQuant cell viability assay, MDA-MB-468; type: cell-based, human; settings: MDA-MB-468, CyQuant, 0-10 μM, 72 h
Experimental: as §7, §2, §3

[9] = tested on: pY705Stat3; test: Constitutive Stat3 Tyr705 phosphorylation, immunoblot, UACC903 metastatic melanoma cells; type: cell-based, human; settings: UACC903, 10 or 20 μM for 1 and 3 h
Experimental: as §4, §5, §6

[10] = tested on: C8161; test: Cell viability, C8161 metastatic melanoma cells; type: cell-based, human; settings: C8161, 48 h, 10 and 20 micromolar
Experimental: as §1, §2, §3

[11] = tested on: Stat5; test: Stat5 DNA-binding activity in vitro, EMSA (MGFe probe); type: biochemical; settings: 10 μM or 0-30 μM compound
From the text: FIG. 2. […] Positions of Stat:DNA complexes in gel are labeled; control lanes (0 or Con) represent nuclear extracts pre-treated with 10% DMSO. […] Where appropriate, bands corresponding to Stat3:DNA complexes were scanned and quantified for each concentration of compound using ImageJ and plotted as percent of control (DMSO) against concentration of compound, from which the IC50 values were derived.

[12] = tested on: AR7119; test: Cell viability, immortalized normal melanocytes AR7119; type: cell-based, human; settings: AR7119 (no aberrant Stat3 activation), 48 h
Experimental: as §1, §2, §3

[13] = tested on: pY705Stat3; test: Constitutive Stat3 tyrosine phosphorylation, immunoblot, MDA-MB-231 cells; type: cell-based, human
Experimental: as §4, §5, §6

[14] = tested on: pY705Stat3; test: Constitutive Stat3 Tyr705 phosphorylation, immunoblot, 1205LU metastatic melanoma cells; type: cell-based, human; settings: 10 or 20 μM for 1 and 3 h
Experimental: as §4, §5, §6

[15] = tested on: 1205LU; test: Cell viability, 1205LU metastatic melanoma cells; type: cell-based, human; settings: 48 h, 10 and 20 micromolar
Experimental: as §1, §2, §3

[16] = tested on: NIH3T3 mouse fibroblasts; test: Cell growth, trypan blue exclusion/phase-contrast microscopy, NIH3T3; type: cell-based; settings: NIH3T3 (no aberrantly-active Stat3), trypan blue exclusion, 72 h
Experimental: as §1, §2, §3

[17] = molecular target: Stat3 (Mus musculus, UniProt P42227); type: biochemical; settings: EMSA; read-out: IC50, inhibition of Stat3 DNA-binding activity in vitro
Experimental: FIG. 1. Effect of select compounds of the present invention on Stat3 DNA-binding activity in vitro. […] Positions of Stat3:DNA complexes in gel are labeled; control lanes (0) represent nuclear extracts pre-treated with 10% DMSO.
Except where indicated, nuclear extracts were pre-incubated with compound for 30 min at room temperature prior to incubation with the radiolabeled probe for 30 min at 30° C. before subjecting to EMSA analysis. Where appropriate, bands corresponding to Stat3:DNA complexes were scanned and quantified for each concentration of compound using ImageJ and plotted as percent of control (DMSO) against concentration of compound, from which the IC50 values were derived.

[18] = tested on: MDA-MB-231; test: Cell growth, trypan blue exclusion/phase-contrast microscopy, MDA-MB-231; type: cell-based, human
Experimental: as §1, §2, §3

[19] = tested on: MCF7; test: CyQuant cell viability assay, MCF7; type: cell-based, human; settings: 72 h
Experimental: as §7, §2, §3

[20] = tested on: pJak2; test: Stat3-independent signaling, immunoblot of pJak2, MDA-MB-231 cells; type: cell-based, human; settings: MDA-MB-231, 5 μM, 24 h treatment
From the text: (§8) FIG. 4. Effects of select compounds of the present invention on Stat3-independent signal transduction events. […] Positions of proteins in gel are labeled; control lane (Con) represents whole-cell lysate prepared from 0.05% DMSO-treated cells.
as §5, §6

[21] = tested on: pSrc; test: Stat3-independent signaling, immunoblot of pSrc, MDA-MB-231 cells; type: cell-based, human; settings: MDA-MB-231, 5 μM, 24 h treatment
From the text: as §8, §5, §6

[22] = tested on: pERK1/2; test: Stat3-independent signaling, immunoblot of pERK1/2, MDA-MB-231 cells; type: cell-based, human; settings: MDA-MB-231, 5 μM, 24 h treatment
From the text: as §8, §5, §6

Chain of Stat3 (Homo sapiens (Human), UniProt P40763) (P40763 whole entry): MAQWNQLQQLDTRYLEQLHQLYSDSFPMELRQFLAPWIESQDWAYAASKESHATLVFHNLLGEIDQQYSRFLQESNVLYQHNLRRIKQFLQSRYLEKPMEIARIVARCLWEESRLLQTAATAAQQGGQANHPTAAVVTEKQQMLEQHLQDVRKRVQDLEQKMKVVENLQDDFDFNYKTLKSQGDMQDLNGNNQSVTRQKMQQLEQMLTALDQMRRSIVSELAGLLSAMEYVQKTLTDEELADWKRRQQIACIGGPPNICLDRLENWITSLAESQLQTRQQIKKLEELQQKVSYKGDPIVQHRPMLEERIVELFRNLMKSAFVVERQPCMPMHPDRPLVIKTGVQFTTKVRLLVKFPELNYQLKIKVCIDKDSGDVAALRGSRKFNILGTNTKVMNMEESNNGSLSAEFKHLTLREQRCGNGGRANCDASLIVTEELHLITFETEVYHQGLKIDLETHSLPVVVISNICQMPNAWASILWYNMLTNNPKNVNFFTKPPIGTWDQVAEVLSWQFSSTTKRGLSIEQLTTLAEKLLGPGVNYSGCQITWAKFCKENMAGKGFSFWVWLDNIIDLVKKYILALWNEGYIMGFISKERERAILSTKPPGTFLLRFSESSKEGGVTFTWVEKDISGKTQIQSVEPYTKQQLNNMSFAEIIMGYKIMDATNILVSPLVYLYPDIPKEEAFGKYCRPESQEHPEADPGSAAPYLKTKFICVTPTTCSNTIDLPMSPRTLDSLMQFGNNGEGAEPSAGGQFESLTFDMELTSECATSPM
Chain of Stat3 (Mus musculus, UniProt P42227) (P42227 2-770 limits assumed): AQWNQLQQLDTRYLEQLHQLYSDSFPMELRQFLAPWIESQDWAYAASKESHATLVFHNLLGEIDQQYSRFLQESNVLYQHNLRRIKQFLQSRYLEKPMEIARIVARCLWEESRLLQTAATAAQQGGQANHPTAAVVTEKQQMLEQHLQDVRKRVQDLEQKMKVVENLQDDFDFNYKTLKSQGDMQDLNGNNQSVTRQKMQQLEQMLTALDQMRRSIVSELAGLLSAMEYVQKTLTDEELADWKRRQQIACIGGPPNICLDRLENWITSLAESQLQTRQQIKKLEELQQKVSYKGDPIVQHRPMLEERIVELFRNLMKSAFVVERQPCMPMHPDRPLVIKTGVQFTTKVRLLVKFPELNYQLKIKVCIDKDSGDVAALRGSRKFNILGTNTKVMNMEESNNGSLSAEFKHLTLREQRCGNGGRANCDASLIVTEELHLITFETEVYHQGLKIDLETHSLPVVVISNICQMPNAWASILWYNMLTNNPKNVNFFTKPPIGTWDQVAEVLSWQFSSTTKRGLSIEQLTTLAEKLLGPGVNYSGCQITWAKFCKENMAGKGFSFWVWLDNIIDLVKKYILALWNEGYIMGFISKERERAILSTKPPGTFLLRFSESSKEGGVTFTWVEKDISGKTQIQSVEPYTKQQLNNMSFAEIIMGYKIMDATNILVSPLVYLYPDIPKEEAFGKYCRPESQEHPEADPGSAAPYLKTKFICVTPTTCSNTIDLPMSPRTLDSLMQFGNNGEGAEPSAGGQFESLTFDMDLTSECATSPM

## C[C@H](C(=O)N(Cc1ccc(C2CCCCC2)cc1)c1ccc(C(=O)O)c(O)c1)N(C)S(=O)(=O)c1c(F)c(F)c(F)c(F)c1F [Example 1, (R)-4-(N-(4-Cyclohexylbenzyl)-2-((2,3,4,5,6-pentafluoro-N-methylphenyl)sulfonamido)propan-amido)-2-hydroxybenzoic acid]
[1]
  cell viability: only weakly inhibited the viability
[2]
  cell viability: strongly inhibited the viability
[3]; 1 h treatment
  Stat3 DNA-binding activity in MDA-MB-231 cells: little change
[3]; 3 h treatment
  Stat3 DNA-binding activity in MDA-MB-231 cells: inhibited
[4]
  constitutive Stat3 Tyr705 phosphorylation: strongly inhibited
[5]
  effect on Stat1 DNA-binding activity: only weakly affected
[5]; 10 vs 30 μM
  concentration at which a non-specific effect on Stat1 DNA-binding activity was observed: 30 µM
[6]
  cell viability: suppressed the viability
[7]; MDA-MB-468, 5 μM, 1 h treatment (inhibition stated only for MDA-MB-231)
  pY705Stat3 levels: only inhibited pY705Stat3 levels in MDA-MB-231
[8]
  cell viability: suppressed the viability
[9]
  constitutive Stat3 Tyr705 phosphorylation: strongly inhibited
[10]
  cell viability: strongly inhibited the viability
[11]
  effect on Stat5 DNA-binding activity: also disrupted Stat5 DNA-binding activity; also recorded: concentration-dependent
[12]
  cell viability: relatively weaker activity
[13]; MDA-MB-231, 5 μM, 1 h treatment
  pY705Stat3 levels: inhibited pY705Stat3 levels
[14]
  constitutive Stat3 Tyr705 phosphorylation: strongly inhibited
[15]
  cell viability: strongly inhibited the viability

## C[C@H](C(=O)N(Cc1ccc(C2CCCCC2)cc1)c1ccc(C(=O)O)cc1F)N(C)S(=O)(=O)c1c(F)c(F)c(F)c(F)c1F [Example 37, (R)-4-(N-(4-cyclohexylbenzyl)-2-((2,3,4,5,6-pentafluoro-N-methylphenyl)sulfonamido)propanamido)-3-fluorobenzoic acid]
[16]
  IC50: 5.1 µM
[17]
  IC50: 1.8 ± 0.94 µM
[5]
  effect on Stat1 DNA-binding activity: no measureable effect
[6]
  cell viability: suppressed the viability
[18]; Homo sapiens, MDA-MB-231, 72 h
  IC50: 3.9 µM
[18]; printed as MDA-MB-231 and/or MDA-MB-468, trypan blue exclusion, 3 μM Example 37 or 5 μM Example 25, 0-96 h
  cell growth, time- or dose-dependent: suppressed
[19]; 10 μM
  toxicity to MCF7 cells: general toxicity
[19]; MCF7 (no aberrantly-active Stat3), CyQuant
  cell viability: only weakly or not inhibited
[7]; MDA-MB-468, treatment for 1 h
  constitutive pY705Stat3 levels: strongly inhibited
[8]
  cell viability: suppressed the viability
[11]
  effect on Stat5 DNA-binding activity: no measureable effect
[13]; MDA-MB-231, treatment for 1 h
  constitutive pY705Stat3 levels: strongly inhibited

## C[C@H](C(=O)N(Cc1ccc(C2CCCCC2)cc1)c1ccc(C(=O)O)cc1Cl)N(C)S(=O)(=O)c1c(F)c(F)c(F)c(F)c1F [Example 40, (R)-3-chloro-4-(N-(4-cyclohexylbenzyl)-2-((2,3,4,5,6-pentafluoro-N-methylphenyl)sulfonamido)propanamido)benzoic acid]
[20]
  effect on pJak2: little effect
[21]
  effect on pSrc: little effect
[22]
  effect on pERK1/2: little effect

## Cc1cc(C(=O)O)ccc1N(Cc1ccc(C2CCCCC2)cc1)C(=O)[C@@H](C)N(C)S(=O)(=O)c1c(F)c(F)c(F)c(F)c1F [Example 42, (R)-4-(N-(4-cyclohexylbenzyl)-2-((2,3,4,5,6-pentafluoro-N-methylphenyl)sulfonamido)propanamido)-3-methylbenzoic acid]
[20]
  effect on pJak2: little effect
[21]
  effect on pSrc: little effect
[22]
  effect on pERK1/2: little effect
